Data on three compounds can be found in patent US20230193350A1, “METHOD FOR DIAGNOSING AND TREATING BLOOD CANCER” (Ohara Pharmaceutical Co., Ltd., priority 2020, published 2023).

Structures are written as SMILES.

Format in all cases: cell-based
For one assay, the system named is DUSP5 mRNA. Description: Expression amount of DUSP5 mRNA in MT-1 cells by RT-PCR. As to conditions: 4 days culture, FIG. 2A. As for the experimental part: (§1) MT-1 cells (ATL-derived cell lines) were purchased from JCRB Cell Bank and cultured in an RPMI1640 culture solution comprising 10% fetal bovine serum (FBS) and 1% penicillin-streptomycin in an environment of 37° C. and 5% CO2. The culture was started by additions of OR21, a DNA methyl transferase inhibitor and/or EPZ-6438, a histone methyl transferase inhibitor to a culture solution of MT-1 cells, exchanged with a fresh culture solution comprising the inhibitors after 2 days, and further cultured for 2 days. After culturing, the cells were collected and total RNA was extracted, and the expression amount of DUSP5 mRNA was measured by RT-PCR using SYBR @ Green (Takara Bio).

The next assay has as its system MT-1 cells. The experiment in a line: Proliferation of MT-1 cells (Cell Countdown Kit-8, formazan absorbance). Conditions: 4 days, FIG. 3. On the procedure: MT-1 cells (ATL-derived cell lines) were purchased from JCRB Cell Bank. MT-1 cells were seeded on a 24-well plate at 0.4×10^5 cells/0.9 mL/well and cultured for 3 hours in an RPMI1640 culture solution comprising 10% fetal bovine serum (FBS) and 1% penicillin-streptomycin in an environment of 37° C. and 5% CO2. Then, OR21, a DNA methyl transferase inhibitor and/or EPZ-6438 or DS-3201b, histone methyl transferase inhibitors were dissolved in the same culture solution, and 0.1 mL thereof was added to each well, and cultured for 4 days while exchanging with a fresh culture solution comprising each inhibitor every two days. The final concentrations of the inhibitors in the culture solution were 0.5 μM for OR21, 2.5 μM for EPZ-6438, and 0.1 μM, 0.5 μM, and 2.5 μM for DS-3201b. In addition, groups of single and combined additions of each inhibitor were provided. The effect of each inhibitor on cell proliferation was measured using Cell Countdown Kit-8 (Dojindo Laboratories). The water-soluble formazan in each well produced from reduction of tetrazolium salt […] was measured at two wavelength (450 nm/620 nm) using a plate reader (Varioskan Flash, Thermo-Fisher Scientific). The results are expressed as relative values with the absorbance of the wells in which no inhibitor was added as 100%.

In a further assay the test system is DUSP5 protein. The experiment in a line: Expression amount of DUSP5 protein in MT-1 cells by Western blotting. As to conditions: 4 days culture, FIG. 2B. On the procedure:
as §1, with “dissolved,” for “total RNA was extracted,”, “protein” for “mRNA”, “Western blotting.” for “RT-PCR using SYBR @ Green (Takara Bio).”
A general note: A western blot detects proteins with antibodies after separation by electrophoresis.

As for `CCN(c1cc(-c2ccc(CN3CCOCC3)cc2)cc(C(=O)NCc2c(C)cc(C)[nH]c2=O)c1C)C1CCOCC1` [EPZ-6438, N-[(4,6-dimethyl-2-oxo-1,2-dihydropyridin-3-yl)methyl]-5-[ethyl(tetrahydro-2H-pyran-4-yl)amino]-4-methyl-4′-(morpholin-4-ylmethyl) biphenyl-3-carboxamide], the “DUSP5 mRNA expression” value in the assay with DUSP5 mRNA (EPZ-6438 at 0.5 μM and 2.5 μM) was “almost no effect”. The “proliferation of MT-1 cells” value in the assay on MT-1 cells (EPZ-6438 2.5 μM) is “hardly affected”. In the assay on DUSP5 protein (EPZ-6438 2.5 μM), the “expression amount of DUSP5 protein” value is on record as “almost no effect”.
Turning to `Cc1cc(C)c(CNC(=O)c2cc(Cl)c3c(c2C)O[C@@](C)([C@H]2CC[C@H](N(C)C)CC2)O3)c(=O)[nH]1.Cc1ccc(S(=O)(=O)O)cc1` [DS-3201b, 4-methylbenzene-1-sulfonic acid (2R)-7-chloro-2-[(trans)-4-(dimethylamino)cyclohexyl]-N-[(4,6-dimethyl-2-oxo-1,2-dihydropyridin-3-yl)methyl]-2,4-dimethyl-2H-1,3-benzodioxole-5-carboxamide], in the assay with MT-1 cells (DS-3201b 0.1 μM to 2.5 μM), the “proliferation of MT-1 cells” value is “hardly affected”.
Regarding `CC[Si](CC)(CC)OC[C@H]1O[C@@H](n2cnc(N)nc2=O)C[C@@H]1O` [OR21, 5′-O-triethylsilyl-2′-deoxy-5-azacytidine], the “DUSP5 mRNA expression” value in the assay on DUSP5 mRNA (OR21 at 0.1 μM and 0.5 μM) is listed as “enhanced DUSP5 mRNA expression in a concentration-dependent manner”. In the assay with MT-1 cells (OR21 0.5 μM), the “proliferation of MT-1 cells” value is reported as “exhibited an effect of inhibiting proliferation”. Moreover, the “expression amount of DUSP5 protein” value in the assay on DUSP5 protein (OR21 0.5 μM) was “apparent increase”.
